Where two headings read alike, the source gives them in different places.
Experiments:
Candida albicans [1] = experiment: Activity of compounds (I) against vaginal candidosis in rats; assay type: in vivo, Female Wistar rats; conditions: 336 h, oral once a day for two days from day of infection, active at the 14th day after infection
Protocol: Experiment A: Activity of compounds (I) against vaginal candidosis in rats Female Wistar rats of ± 100 g body weight were used. They were ovariectomized and hysterectomized and after three weeks of recovery, 100 μg of oestradiol undecylate in sesame oil was given subcutaneously once a week for 3 consecutive weeks. The thus induced pseudooestrus was controlled by microscopic examination of vaginal smears. Food and water were left available ad libitum. The rats were infected intravaginally with 8.10^5 cells of Candida albicans, grown on Sabouraud broth for 48 hours at 37° C. and diluted with saline. The date of infection varied from day +25 to day +32 after surgical intervention, depending on the appearance of signs of induced pseudo-oestrus. The drugs under investigation were administered orally once a day for two days starting from the day of infection. For each experiment there were placebo treated controls. The results were assessed by taking vaginal smears with sterile swabs on several days after the infection. The swabs were put into Sabouraud broth in petri-dishes and incubated for 48 hours at 37° C. If no growth of Candida albicans occured, i.e., when the animals were negative at the end of the experiment, this was due to drug administration because it never happened in placebo treated controls. The tables I and II below give the lowest oral dose of the drug under investigation which was found active at the 14th day after infection.

Candida albicans [2] = experiment: Activity of compounds (I) against crop candidosis in turkeys; assay type: in vivo; conditions: medicated feed for 13 consecutive days from day of infection, crops of 50% of animals completely negative for Candida albicans; for Crop candidosis in Turkeys: ED50 in mg/kg of feed.: Table I
Protocol: Experiment B: Activity of compounds (I) against crop candidosis in turkeys Turkeys of 14 days old were infected in the crop with 4·10^6 Candida albicans cells, grown on Sabouraud broth for 48 hours at 37° C. and diluted with saline. The volume of the inoculum was 1 ml. The drug under investigation were premixed in 500 mg of lacton and thereafter admixed in 1000 g of meal without any additives. The concentration of the drug under investigation in the meal was expressed in mg/kg. The animals were given the medicated feed for 13 consecutive days starting on the day of infection. At the end of the experiment all animals were sacrificed. At autopsy the crops were removed, emptied and grinded in an ultra-turrax mixer in 15 ml of sterile saline. Colony counting was done on Sabouraud agar and the results given in Tables I and Ii represent the ED50, i.e., the dose of the drug whereby the crops of 50% of the animals were completely negative for Candida albicans.

[3] = Table II, read-out: Vagingal candidosis in rats: lowest effective dose
[4] = Table I, read-out: Vaginal candidosis in rats: lowest effective dose

| SMILES | minimal effective dose (Candida albicans [1]; [3]) [mg/kg] | Crop candidosis in Turkeys: ED50 in mg/kg in feed (Candida albicans [2]; Table II) [mg/kg in feed] | minimal effective dose (Candida albicans [1]; [4]) [mg/kg] | Crop candidosis in Turkeys: ED50 in mg/kg of feed. (Candida albicans [2]) |
| --- | --- | --- | --- | --- |
| Clc1ccc(C2(Cn3ccnc3)OCC(COc3cccc(-n4ccnc4)c3)O2)c(Cl)c1 (stereo not drawn) | 2.5 |  |  |  |
| Clc1ccc(C2(Cn3cncn3)OCC(COc3ccc(-n4ccnc4)cc3)O2)c(Cl)c1 (stereo not drawn) | 1.25 | 8 |  |  |
| Clc1ccc([C@@]2(Cn3ccnc3)OC[C@H](COc3ccc(-n4ccnc4)cc3)O2)c(Cl)c1 (relative stereo) |  |  | 1.25 | 8 mg/kg of feed |
| Clc1ccc([C@@]2(Cn3ccnc3)OC[C@H](COc3ccc(-n4cncn4)cc3)O2)c(Cl)c1 (relative stereo) |  |  | 1.25 | 16 mg/kg of feed |
| Clc1ccc([C@@]2(Cn3ccnc3)OC[C@H](COc3ccc(-n4cccc4)cc3)O2)c(Cl)c1 (relative stereo) |  |  | 2.5 | 125 mg/kg of feed |
| Clc1ccc([C@@]2(Cn3ccnc3)OC[C@H](COc3ccc(-n4cccn4)cc3)O2)c(Cl)c1 (relative stereo) |  |  | 2.5 | 16 mg/kg of feed |
| Cc1nccn1-c1ccc(OC[C@H]2CO[C@](Cn3ccnc3)(c3ccc(Cl)cc3Cl)O2)cc1 (relative stereo) |  |  | 10 | 125 mg/kg of feed |
| Clc1ccc([C@@]2(Cn3ccnc3)OC[C@H](COc3ccc(-n4ccnc4-c4ccccc4)cc3)O2)c(Cl)c1 (relative stereo) |  |  | 5 | 125 mg/kg of feed |
| Cc1n[nH]c(=O)n1-c1ccc(OC[C@H]2CO[C@](Cn3ccnc3)(c3ccc(Cl)cc3Cl)O2)cc1 (relative stereo) |  |  | < 10 |  |
| CCCn1ncn(-c2ccc(OC[C@H]3CO[C@](Cn4ccnc4)(c4ccc(Cl)cc4Cl)O3)cc2)c1=O (relative stereo) |  |  | < 10 |  |
| CC(C)n1ncn(-c2ccc(OC[C@H]3CO[C@](Cn4ccnc4)(c4ccc(Cl)cc4Cl)O3)cc2)c1=O (relative stereo) |  |  | < 10 |  |
| Cc1nn(C)c(=O)n1-c1ccc(OC[C@H]2CO[C@](Cn3ccnc3)(c3ccc(Cl)cc3Cl)O2)cc1 (relative stereo) |  |  | 1.25 |  |
| Cc1nn(C(C)C)c(=O)n1-c1ccc(OC[C@H]2CO[C@](Cn3ccnc3)(c3ccc(Cl)cc3Cl)O2)cc1 (relative stereo) |  |  | 5 |  |
| CCn1ncn(-c2ccc(OC[C@H]3CO[C@](Cn4ccnc4)(c4ccc(Cl)cc4Cl)O3)cc2)c1=O (relative stereo) |  |  | 5 | 31 mg/kg of feed |
| CCn1nc(C)n(-c2ccc(OC[C@H]3CO[C@](Cn4ccnc4)(c4ccc(Cl)cc4Cl)O3)cc2)c1=O (relative stereo) |  |  | 2.5 |  |
| Sc1nnnn1-c1ccc(OC[C@H]2CO[C@](Cn3ccnc3)(c3ccc(Cl)cc3Cl)O2)cc1 (relative stereo) |  |  | 2.5 |  |
| CSc1nncn1-c1ccc(OC[C@H]2CO[C@](Cn3ccnc3)(c3ccc(Cl)cc3Cl)O2)cc1 (relative stereo) |  |  | 10 | 8 mg/kg of feed |
| CCSc1nccn1-c1ccc(OC[C@H]2CO[C@](Cn3ccnc3)(c3ccc(Cl)cc3Cl)O2)cc1 (relative stereo) |  |  | 5 |  |

| SMILES | minimal effective dose (Candida albicans [1]; [3]) [mg/kg] | Crop candidosis in Turkeys: ED50 in mg/kg in feed (Candida albicans [2]; Table II) [mg/kg in feed] | minimal effective dose (Candida albicans [1]; [4]) [mg/kg] | Crop candidosis in Turkeys: ED50 in mg/kg of feed. (Candida albicans [2]) |
| --- | --- | --- | --- | --- |
| CSc1nccn1-c1ccc(OC[C@H]2CO[C@](Cn3ccnc3)(c3ccc(Cl)cc3Cl)O2)cc1 (relative stereo) |  |  | 5 | 31 mg/kg of feed |
| CCCSc1nccn1-c1ccc(OC[C@H]2CO[C@](Cn3ccnc3)(c3ccc(Cl)cc3Cl)O2)cc1 (relative stereo) |  |  | 5 | 31 mg/kg of feed |
| CC(C)Sc1nccn1-c1ccc(OC[C@H]2CO[C@](Cn3ccnc3)(c3ccc(Cl)cc3Cl)O2)cc1 (relative stereo) |  |  |  | 31 mg/kg of feed |
| CSc1ncc(C)n1-c1ccc(OC[C@H]2CO[C@](Cn3ccnc3)(c3ccc(Cl)cc3Cl)O2)cc1 (relative stereo) |  |  |  | 31 mg/kg of feed |
| CSc1ncn(-c2ccc(OC[C@H]3CO[C@](Cn4ccnc4)(c4ccc(Cl)cc4Cl)O3)cc2)n1 (relative stereo) |  |  | 1.25 | 16 mg/kg of feed |
| Clc1ccc([C@@]2(Cn3ccnc3)OC[C@H](COc3ccc(-n4ncnc4-c4ccccc4)cc3)O2)c(Cl)c1 (relative stereo) |  |  | 10 |  |
| CSc1nc(C)n(-c2ccc(OC[C@H]3CO[C@](Cn4ccnc4)(c4ccc(Cl)cc4Cl)O3)cc2)n1 (relative stereo) |  |  | 2.5 |  |
| Cc1ccn(-c2ccc(OC[C@H]3CO[C@](Cn4ccnc4)(c4ccc(Cl)cc4Cl)O3)cc2)n1 (relative stereo) |  |  | 2.5 |  |
| CSc1nnc(C)n1-c1ccc(OC[C@H]2CO[C@](Cn3ccnc3)(c3ccc(Cl)cc3Cl)O2)cc1 (relative stereo) |  |  | 2.5 |  |
| Cc1ncnn1-c1ccc(OC[C@H]2CO[C@](Cn3ccnc3)(c3ccc(Cl)cc3Cl)O2)cc1 (relative stereo) |  |  | 1.25 | 8 mg/kg of feed |
| CS(=O)(=O)c1nccn1-c1ccc(OC[C@H]2CO[C@](Cn3ccnc3)(c3ccc(Cl)cc3Cl)O2)cc1 (relative stereo) |  |  | 5 |  |
| CCOc1nncn1-c1ccc(OC[C@H]2CO[C@](Cn3ccnc3)(c3ccc(Cl)cc3Cl)O2)cc1 (relative stereo) |  |  | 2.5 | 31 mg/kg of feed |
| CCc1ncnn1-c1ccc(OC[C@H]2CO[C@](Cn3ccnc3)(c3ccc(Cl)cc3Cl)O2)cc1 (relative stereo) |  |  | 5 | 8 mg/kg of feed |
| C[S+]([O-])c1nncn1-c1ccc(OC[C@H]2CO[C@](Cn3ccnc3)(c3ccc(Cl)cc3Cl)O2)cc1 (relative stereo) |  |  | 2.5 |  |
| Cc1nnc([S+](C)[O-])n1-c1ccc(OC[C@H]2CO[C@](Cn3ccnc3)(c3ccc(Cl)cc3Cl)O2)cc1 (relative stereo) |  |  | 10 | 16 mg/kg of feed |
| Clc1ccc([C@@]2(Cn3ccnc3)OC[C@H](COc3ccc(-n4cnnn4)cc3)O2)c(Cl)c1 (relative stereo) |  |  |  | 31 mg/kg of feed |
| COc1ccc([C@@]2(Cn3ccnc3)OC[C@H](COc3ccc(-n4ccnc4)cc3)O2)cc1 (relative stereo) | 5 |  |  |  |

From patent US4160841A, “Heterocyclic derivatives of 1-(1,3-dioxolan-2-ylmethyl)-1H-imidazoles” (Janssen Pharmaceutica, N.V., priority 1977, dated 1979)
